The conditions of data set [1]: cited from earlier work.
For data set [2] the following is noted: in vivo; cited from earlier work.
For data set [3] the following is noted: 822 nanometers, ambient temperature, aqueous solution.
Description: An aqueous solution of indocyanine green (ICG) and the carriers, inulin, poly-d,l-aspartic acid, polyguanylic acid, MBSA, and γ-cyclodextrin were prepared and the fluorescence intensity was monitored at ambient temperature at various time intervals.
Data set [4] is described as follows: Blood clearance in rats monitored by fluorescence from ear capillaries. To be noted: rat, injected through lateral tail vein; excitation 780 nm, emission 830 nm. The protocol: A 500 μL portion of indocyanine green solution (0.8 mg/mL) was injected through the lateral tail vein of Sprague-Dawley or Fischer rats. Blood clearance of the dye bioconjugate was monitored by fluorescence signal emanating from the capillaries of the ear surface using a laser fluorescence apparatus (excitation, 780 nm; emission 830 nm).

Data set [5] can be described thus: Stability of benzothiazolim-squaraine dye and bioconjugates in aqueous solution, fluorescence intensity at 665 nm. To be noted: 665 nanometers, ambient temperature. Type of data set: physicochemical.
The nature of data set [6]: Stability of cyanine blue dye and conjugates in aqueous solution, fluorescence intensity at 670 nm. Type of data set: physicochemical. To be noted: 670 nanometers, ambient temperature.
The nature of data set [7]: Stability of carboxyphloroglucinol-squaraine dye and bioconjugates in aqueous solution, fluorescence intensity at 613 nm. The class given is physicochemical. To be noted: 613 nanometers (λex=515), ambient temperature.

Where two headings read alike, the source gives them in different places.

With `CC1(C)C(/C=C/C=C/C=C/C=C2/N(CCCCS(=O)(=O)O)c3ccc4ccccc4c3C2(C)C)=[N+](CCCCS(=O)(=O)O)c2ccc3ccccc3c21.[Na+].[Na+]` [indocyanine green, Indocyanine Green Dye], the “degradation in aqueous media” value in data set [1] was “undergoes degradation in aqueous media with loss of fluorescence”. Besides, the plasma half-life result in data set [2] is given as “very short”. The “uptake by the liver” value in data set [2] is “rapidly taken up by the liver”. Moreover, the “Percent Decrease in Fluorescence” value was 0% in data set [3] (2 Hours), 19% in data set [3] (4 Hours) and 48% in data set [3] (24 Hours). Further, the “time constant (τ) for blood clearance” value in data set [4] turned out to be 138 s.

On to `O=C(O)CN1/C(=C/C2=C(O)C(=C/c3sc4ccccc4[n+]3CC(=O)O)/C2=O)Sc2ccccc21` [Benzothiazolim Dye/Water, Benzothiazolium Squaraine Dye], for which the entries for the “Percent Decrease in Fluorescence” value in data set [5] (2 Hours), in data set [5] (4 Hours) and in data set [5] (24 Hours) were 92%, 64% and 46%, respectively.

Consider `O=C(O)CN1/C(=C/C=C/C=C/c2sc3ccccc3[n+]2CC(=O)O)Sc2ccccc21` [Cyanine Blue Dye/Water, Cyanine Blue Dye], for which the “Percent Decrease in Fluorescence” value in data set [6] (2 Hours) is recorded as 20%; in data set [6] (4 Hours), 42%; in data set [6] (24 Hours) it was 99%.

For `O=C(O)C1=C(O)/C(=C2/C(=O)C(c3c(O)cc(O)c(C(=O)O)c3O)=C2O)C(O)=CC1=O` [Carboxyphloroglucinol Squaraine Dye], the “Percent Decrease in Fluorescence” value in data set [7] (2 Hours) worked out at 13%; in data set [7] (4 Hours) it was 13%; in data set [7] (24 Hours), 50%.
